Experiments:
639-V = experiment: cells; assay type: functional, cell-based; settings: Homo sapiens
Description: SANGER: Inhibition of human 639-V cell growth in a cell viability assay.

G-401 = experiment: cells; assay type: functional, cell-based; settings: Homo sapiens
Description: SANGER: Inhibition of human G-401 cell growth in a cell viability assay.

SCLC-21H = experiment: cells; assay type: functional, cell-based, Homo sapiens; settings: Homo sapiens, SCLC-21H
Description: SANGER: Inhibition of human SCLC-21H cell growth in a cell viability assay.

ECC4 = experiment: cells; assay type: functional, cell-based, Homo sapiens; settings: Homo sapiens, ECC4
Description: SANGER: Inhibition of human ECC4 cell growth in a cell viability assay.

SW1088 = experiment: cells; assay type: functional, cell-based; settings: Homo sapiens
Description: SANGER: Inhibition of human SW1088 cell growth in a cell viability assay.

LC4-1 = experiment: cells; assay type: functional, cell-based, Homo sapiens; settings: Homo sapiens, LC4-1
Description: SANGER: Inhibition of human LC4-1 cell growth in a cell viability assay.

RPMI 8402 = experiment: SANGER: Inhibition of human RPMI-8402 cell growth in a cell viability assay.; assay type: functional, cell-based; settings: Homo sapiens, RPMI 8402
SCC-4 = experiment: cells; assay type: functional, cell-based; settings: Homo sapiens
Description: SANGER: Inhibition of human SCC-4 cell growth in a cell viability assay.

COLO-741 = experiment: cells; assay type: functional, cell-based; settings: Homo sapiens
Description: SANGER: Inhibition of human COLO-741 cell growth in a cell viability assay.

NCI-H2196 = experiment: cells; assay type: functional, cell-based, Homo sapiens; settings: Homo sapiens, NCI-H2196; read-out: IC50
Description: SANGER: Inhibition of human NCI-H2196 cell growth in a cell viability assay.

RO82-W-1 = experiment: cells; assay type: functional, cell-based; settings: Homo sapiens
Description: SANGER: Inhibition of human RO82-W-1 cell growth in a cell viability assay.

LB647-SCLC = experiment: cells; assay type: functional, cell-based, Homo sapiens; settings: Homo sapiens, LB647-SCLC
Description: SANGER: Inhibition of human LB647-SCLC cell growth in a cell viability assay.

OVCAR-8 = experiment: cells; assay type: functional, cell-based; settings: Homo sapiens
Description: SANGER: Inhibition of human OVCAR-8 cell growth in a cell viability assay.

NCI-H510A = experiment: cells; assay type: functional, cell-based, Homo sapiens; settings: Homo sapiens, NCI-H510A
Description: SANGER: Inhibition of human NCI-H510A cell growth in a cell viability assay.

KYSE-150 cell line = experiment: cells; assay type: functional, cell-based; settings: Homo sapiens
Description: SANGER: Inhibition of human KYSE-150 cell growth in a cell viability assay.

A 172 = experiment: cells; assay type: functional, cell-based; settings: Homo sapiens
Description: SANGER: Inhibition of human A172 cell growth in a cell viability assay.

ARH-77 = experiment: cells; assay type: functional, cell-based, Homo sapiens; settings: Homo sapiens, ARH-77
Description: SANGER: Inhibition of human ARH-77 cell growth in a cell viability assay.

SW948 = experiment: cells; assay type: functional, cell-based; settings: Homo sapiens
Description: SANGER: Inhibition of human SW948 cell growth in a cell viability assay.

EB-3 = experiment: cells; assay type: functional, cell-based, Homo sapiens; settings: Homo sapiens, EB-3
Description: SANGER: Inhibition of human EB-3 cell growth in a cell viability assay.

HT-3 = experiment: cells; assay type: functional, cell-based; settings: Homo sapiens
Description: SANGER: Inhibition of human HT-3 cell growth in a cell viability assay.

RL = experiment: cells; assay type: functional, cell-based, Homo sapiens; settings: Homo sapiens, RL
Description: SANGER: Inhibition of human RL cell growth in a cell viability assay.

MFH-ino = experiment: cells; assay type: functional, cell-based, Homo sapiens; settings: Homo sapiens, MFH-ino
Description: SANGER: Inhibition of human MFH-ino cell growth in a cell viability assay.

P31-FUJ = experiment: cells; assay type: functional, cell-based, Homo sapiens; settings: Homo sapiens, P31-FUJ
Description: SANGER: Inhibition of human P31-FUJ cell growth in a cell viability assay.

BL-70 = experiment: SANGER: Inhibition of human BL-70 cell growth in a cell viability assay.; assay type: functional, cell-based; settings: Homo sapiens, BL-70
SW756 = experiment: cells; assay type: functional, cell-based; settings: Homo sapiens
Description: SANGER: Inhibition of human SW756 cell growth in a cell viability assay.

GMS-10 = experiment: cells; assay type: functional, cell-based; settings: Homo sapiens
Description: SANGER: Inhibition of human GMS-10 cell growth in a cell viability assay.

RVH-421 = experiment: cells; assay type: functional, cell-based; settings: Homo sapiens
Description: SANGER: Inhibition of human RVH-421 cell growth in a cell viability assay.

BL-41 = experiment: cells; assay type: functional, cell-based; settings: Homo sapiens
Description: SANGER: Inhibition of human BL-41 cell growth in a cell viability assay.

HPAF-II = experiment: cells; assay type: functional, cell-based; settings: Homo sapiens
Description: SANGER: Inhibition of human HPAF-II cell growth in a cell viability assay.

WSU-NHL = experiment: cells; assay type: functional, cell-based, Homo sapiens; settings: Homo sapiens, WSU-NHL
Description: SANGER: Inhibition of human WSU-NHL cell growth in a cell viability assay.

IGROV-1 = experiment: cells; assay type: functional, cell-based; settings: Homo sapiens
Description: SANGER: Inhibition of human IGROV-1 cell growth in a cell viability assay.

ME-180 = experiment: cells; assay type: functional, cell-based; settings: Homo sapiens
Description: SANGER: Inhibition of human ME-180 cell growth in a cell viability assay.

KP-N-YN = experiment: cells; assay type: functional, cell-based; settings: Homo sapiens
Description: SANGER: Inhibition of human KP-N-YN cell growth in a cell viability assay.

MKN-7 = experiment: cells; assay type: functional, cell-based; settings: Homo sapiens
Description: SANGER: Inhibition of human MKN7 cell growth in a cell viability assay.

KYSE-510 = experiment: cells; assay type: functional, cell-based; settings: Homo sapiens
Description: SANGER: Inhibition of human KYSE-510 cell growth in a cell viability assay.

NCI-H460 = experiment: cells; assay type: functional, cell-based; settings: Homo sapiens
Description: SANGER: Inhibition of human NCI-H460 cell growth in a cell viability assay.

A2058 = experiment: cells; assay type: functional, cell-based; settings: Homo sapiens
Description: SANGER: Inhibition of human A2058 cell growth in a cell viability assay.

SBC-5 = experiment: cells; assay type: functional, cell-based; settings: Homo sapiens
Description: SANGER: Inhibition of human SBC-5 cell growth in a cell viability assay.

PF-382 = experiment: cells; assay type: functional, cell-based, Homo sapiens; settings: Homo sapiens, PF-382
Description: SANGER: Inhibition of human PF-382 cell growth in a cell viability assay.

LU-99A = experiment: cells; assay type: functional, cell-based; settings: Homo sapiens
Description: SANGER: Inhibition of human LU-99A cell growth in a cell viability assay.

KYSE-270 = experiment: cells; assay type: functional, cell-based; settings: Homo sapiens
Description: SANGER: Inhibition of human KYSE-270 cell growth in a cell viability assay.

RMG-I = experiment: cells; assay type: functional, cell-based; settings: Homo sapiens
Description: SANGER: Inhibition of human RMG-I cell growth in a cell viability assay.

K052 = experiment: cells; assay type: functional, cell-based, Homo sapiens; settings: Homo sapiens, K052
Description: SANGER: Inhibition of human K052 cell growth in a cell viability assay.

Ca-Ski = experiment: cells; assay type: functional, cell-based; settings: Homo sapiens
Description: SANGER: Inhibition of human Ca-Ski cell growth in a cell viability assay.

NCI-H810 = experiment: cells; assay type: functional, cell-based; settings: Homo sapiens
Description: SANGER: Inhibition of human NCI-H810 cell growth in a cell viability assay.

NCI-H2405 = experiment: cells; assay type: functional, cell-based; settings: Homo sapiens
Description: SANGER: Inhibition of human NCI-H2405 cell growth in a cell viability assay.

NB12 = experiment: cells; assay type: functional, cell-based; settings: Homo sapiens
Description: SANGER: Inhibition of human NB12 cell growth in a cell viability assay.

COLO-680N = experiment: cells; assay type: functional, cell-based; settings: Homo sapiens
Description: SANGER: Inhibition of human COLO-680N cell growth in a cell viability assay.

KYSE-140 = experiment: cells; assay type: functional, cell-based; settings: Homo sapiens
Description: SANGER: Inhibition of human KYSE-140 cell growth in a cell viability assay.

HSC-4 = experiment: cells; assay type: functional, cell-based; settings: Homo sapiens
Description: SANGER: Inhibition of human HSC-4 cell growth in a cell viability assay.

NCI-H2347 = experiment: cells; assay type: functional, cell-based; settings: Homo sapiens
Description: SANGER: Inhibition of human NCI-H2347 cell growth in a cell viability assay.

NCI-H522 = experiment: cells; assay type: functional, cell-based; settings: Homo sapiens
Description: SANGER: Inhibition of human NCI-H522 cell growth in a cell viability assay.

BCPAP = experiment: cells; assay type: functional, cell-based; settings: Homo sapiens
Description: SANGER: Inhibition of human BCPAP cell growth in a cell viability assay.

KARPAS-422 = experiment: cells; assay type: functional, cell-based, Homo sapiens; settings: Homo sapiens, KARPAS-422
Description: SANGER: Inhibition of human KARPAS-422 cell growth in a cell viability assay.

HCC1806 = experiment: cells; assay type: functional, cell-based; settings: Homo sapiens
Description: SANGER: Inhibition of human HCC1806 cell growth in a cell viability assay.

MDA-MB-453 = experiment: cells; assay type: functional, cell-based; settings: Homo sapiens
Description: SANGER: Inhibition of human MDA-MB-453 cell growth in a cell viability assay.

SNU-449 = experiment: cells; assay type: functional, cell-based; settings: Homo sapiens
Description: SANGER: Inhibition of human SNU-449 cell growth in a cell viability assay.

EW-22 = experiment: cells; assay type: functional, cell-based; settings: Homo sapiens
Description: SANGER: Inhibition of human EW-22 cell growth in a cell viability assay.

## OC[C@H](Cc1ccccc1)Nc1nc(Oc2ccc3c(c2)CCC3)nc2c1ncn2Cc1ccc(-c2ccccc2)cc1
639-V
  IC50: 1150 nM
G-401
  IC50: > 10200 nM
SCLC-21H
  IC50: > 10200 nM
ECC4
  IC50: > 10200 nM
SW1088
  IC50: > 10200 nM
LC4-1
  IC50: > 10200 nM
RPMI 8402
  IC50: > 10200 nM
SCC-4
  IC50: > 10200 nM
COLO-741
  IC50: > 10200 nM
NCI-H2196
  IC50: > 10200 nM
RO82-W-1
  IC50: > 10200 nM
LB647-SCLC
  IC50: 5490 nM
OVCAR-8
  IC50: > 10200 nM
NCI-H510A
  IC50: > 10200 nM
KYSE-150 cell line
  IC50: 9340 nM
A 172
  IC50: 6160 nM
ARH-77
  IC50: > 10200 nM
SW948
  IC50: > 10200 nM
EB-3
  IC50: > 10200 nM
HT-3
  IC50: > 10200 nM
RL
  IC50: > 10200 nM
MFH-ino
  IC50: 2410 nM
P31-FUJ
  IC50: > 10200 nM
BL-70
  IC50: 4130 nM
SW756
  IC50: > 10200 nM
GMS-10
  IC50: > 10200 nM
RVH-421
  IC50: > 10200 nM
BL-41
  IC50: 3690 nM
HPAF-II
  IC50: > 10200 nM
WSU-NHL
  IC50: > 10200 nM
IGROV-1
  IC50: 8450 nM
ME-180
  IC50: > 10200 nM
KP-N-YN
  IC50: > 10200 nM
MKN-7
  IC50: > 10200 nM
KYSE-510
  IC50: 3450 nM
NCI-H460
  IC50: 2730 nM
A2058
  IC50: > 10200 nM
SBC-5
  IC50: > 10200 nM
PF-382
  IC50: > 10200 nM
LU-99A
  IC50: > 10200 nM
KYSE-270
  IC50: 1760 nM
RMG-I
  IC50: > 10200 nM
K052
  IC50: > 10200 nM
Ca-Ski
  IC50: > 10200 nM
NCI-H810
  IC50: 3890 nM
NCI-H2405
  IC50: > 10200 nM
NB12
  IC50: > 10200 nM
COLO-680N
  IC50: > 10200 nM
KYSE-140
  IC50: 7490 nM
HSC-4
  IC50: > 10200 nM
NCI-H2347
  IC50: > 10200 nM
NCI-H522
  IC50: > 10200 nM
BCPAP
  IC50: > 10200 nM
KARPAS-422
  IC50: 4930 nM
HCC1806
  IC50: > 10200 nM
MDA-MB-453
  IC50: > 10200 nM
SNU-449
  IC50: 1090 nM

## CN(NC(=O)CC(=O)NN(C)C(=S)c1ccccc1)C(=S)c1ccccc1 [ELESCLOMOL]
639-V
  IC50: 16.7 nM
G-401
  IC50: 5.43 nM
SW1088
  IC50: 82.1 nM
SCC-4
  IC50: > 200 nM
COLO-741
  IC50: 176 nM
RO82-W-1
  IC50: 26.2 nM
OVCAR-8
  IC50: 3.99 nM
NCI-H510A
  IC50: 12.4 nM
KYSE-150 cell line
  IC50: 95 nM
A 172
  IC50: 20.9 nM
SW948
  IC50: > 200 nM
HT-3
  IC50: > 200 nM
MFH-ino
  IC50: > 200 nM
EW-22
  IC50: 74.7 nM
SW756
  IC50: 4.13 nM
GMS-10
  IC50: 107 nM
RVH-421
  IC50: 76.2 nM
HPAF-II
  IC50: 38.3 nM
IGROV-1
  IC50: 104 nM
ME-180
  IC50: 16.2 nM
KP-N-YN
  IC50: 65.6 nM
MKN-7
  IC50: 61 nM
KYSE-510
  IC50: 110 nM
NCI-H460
  IC50: > 200 nM
A2058
  IC50: 13.9 nM
SBC-5
  IC50: 21.6 nM
LU-99A
  IC50: > 200 nM
KYSE-270
  IC50: 37.1 nM
RMG-I
  IC50: > 200 nM
Ca-Ski
  IC50: > 200 nM
NCI-H810
  IC50: 125 nM
NCI-H2405
  IC50: 51 nM
NB12
  IC50: 48 nM
COLO-680N
  IC50: 187 nM
KYSE-140
  IC50: 21 nM
HSC-4
  IC50: 4.8 nM
NCI-H2347
  IC50: 28.7 nM
BCPAP
  IC50: 1.34 nM
HCC1806
  IC50: 23.5 nM
MDA-MB-453
  IC50: 34.7 nM
SNU-449
  IC50: 14.2 nM

— ChEMBL document CHEMBL1201861, “Genomics of Drug Sensitity in Cancer screening data, Wellcome Trust Sanger Institute”
